Data reported in ChEMBL document CHEMBL1156067, “Pyrimidine-based antagonists of h-MCH-R1 derived from ATC0175: in vitro profiling and in vivo evaluation” (Bioorg Med Chem Lett, 2009).
The source made the active and inactive calls. The rule behind the calls is not given here.

Columns and labels:
[1] = target: T1, Melanin-concentrating hormone receptor 1 (Homo sapiens, UniProt Q99705); assay: Antagonist activity at CART form of human MCH1 receptor expressed in HEK293 cells coexpressing Galphaq assessed as inhibition of MCH-induced intracellular calcium level by FLIPR assay; assay type: functional, cell-based
Target sequence in this assay (Q99705 whole entry, looked up): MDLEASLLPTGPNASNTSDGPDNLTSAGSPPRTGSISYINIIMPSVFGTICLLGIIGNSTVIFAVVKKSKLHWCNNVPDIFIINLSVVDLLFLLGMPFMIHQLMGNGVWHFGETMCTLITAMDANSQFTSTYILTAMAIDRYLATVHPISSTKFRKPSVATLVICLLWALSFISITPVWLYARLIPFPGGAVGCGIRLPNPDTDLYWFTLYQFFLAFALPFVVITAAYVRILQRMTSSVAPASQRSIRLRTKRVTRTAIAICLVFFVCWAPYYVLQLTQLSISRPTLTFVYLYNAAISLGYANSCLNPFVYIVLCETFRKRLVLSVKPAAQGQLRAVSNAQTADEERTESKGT

[2] = target: T1, Melanin-concentrating hormone receptor 1; assay: Antagonist activity at CART form of human MCH1 receptor expressed in HEK293 cells coexpressing Galphaq assessed as inhibition of MCH-induced intracellular calcium level up to 10 uM by FLIPR assay; assay type: functional, cell-based
Target sequence in this assay (Q99705 whole entry): as the sequence (Q99705 whole entry, looked up) above

[3] = target: T2, 5-hydroxytryptamine receptor 2B (Homo sapiens, UniProt P41595); assay: Displacement of [125I]LSD from human 5HT2B receptor
[4] = Plasma concentration in Sprague-Dawley rat at 10 mg/kg, po after 2 hrs; assay type: ADME, organism-based; parameters: dose 10 mg/kg, route oral
[5] = Plasma concentration in Sprague-Dawley rat at 10 mg/kg, po after 4 hrs; assay type: ADME, organism-based; parameters: dose 10 mg/kg, route oral
[6] = target: T2, 5-hydroxytryptamine receptor 2B; assay: Displacement of [3H]rauwolsine from human 5HT2B receptor
[7] = Drug level in Sprague-Dawley rat brain at 10 mg/kg, po after 4 hrs; assay type: ADME, organism-based; parameters: dose 10 mg/kg, route oral
[8] = target: T3, 5-hydroxytryptamine receptor 1A (Homo sapiens, UniProt P08908); assay: Inhibition of human 5HT1A
T3 sequence (P08908 whole entry): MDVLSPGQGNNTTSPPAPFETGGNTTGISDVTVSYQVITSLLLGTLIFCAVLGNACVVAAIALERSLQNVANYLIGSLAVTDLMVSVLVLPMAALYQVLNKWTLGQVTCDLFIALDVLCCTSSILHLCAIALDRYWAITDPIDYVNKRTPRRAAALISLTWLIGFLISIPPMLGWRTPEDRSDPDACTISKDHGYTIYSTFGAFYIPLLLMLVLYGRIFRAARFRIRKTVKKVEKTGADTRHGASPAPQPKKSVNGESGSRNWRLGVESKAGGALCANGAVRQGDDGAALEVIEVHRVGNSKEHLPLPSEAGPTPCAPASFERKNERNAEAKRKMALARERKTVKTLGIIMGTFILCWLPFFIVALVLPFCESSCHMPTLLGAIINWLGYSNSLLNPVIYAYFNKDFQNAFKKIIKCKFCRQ

[9] = Ratio of drug level in brain to plasma in po dosed rat; assay type: ADME, organism-based
Histamine H1 receptor = Histamine H1 receptor (Homo sapiens, UniProt P35367); assay: Displacement of [3H]pyrilamine from human histamine H1 receptor
[10] = target: T4, Alpha-1A adrenergic receptor (Homo sapiens, UniProt P35348); assay: Displacement of [3H]prazosin from human adrenergic alpha1A receptor
T4 sequence (P35348 whole entry): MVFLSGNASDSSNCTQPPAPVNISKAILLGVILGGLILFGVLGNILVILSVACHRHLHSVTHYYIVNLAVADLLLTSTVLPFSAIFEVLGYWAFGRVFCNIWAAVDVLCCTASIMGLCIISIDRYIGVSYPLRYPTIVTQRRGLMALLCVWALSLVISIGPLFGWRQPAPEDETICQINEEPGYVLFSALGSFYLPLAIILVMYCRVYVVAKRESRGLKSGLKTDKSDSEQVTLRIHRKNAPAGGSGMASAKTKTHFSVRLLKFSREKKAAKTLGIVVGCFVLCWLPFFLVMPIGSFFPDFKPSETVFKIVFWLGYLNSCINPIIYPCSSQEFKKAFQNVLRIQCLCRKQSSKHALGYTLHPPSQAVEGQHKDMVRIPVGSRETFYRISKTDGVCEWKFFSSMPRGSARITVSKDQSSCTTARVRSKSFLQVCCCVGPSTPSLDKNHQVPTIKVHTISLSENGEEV

[11] = target: T5, Alpha-2A adrenergic receptor (Homo sapiens, UniProt P08913); assay: Displacement of [3H]MK-912 from human adrenergic alpha2A receptor
T5 sequence (P08913 whole entry): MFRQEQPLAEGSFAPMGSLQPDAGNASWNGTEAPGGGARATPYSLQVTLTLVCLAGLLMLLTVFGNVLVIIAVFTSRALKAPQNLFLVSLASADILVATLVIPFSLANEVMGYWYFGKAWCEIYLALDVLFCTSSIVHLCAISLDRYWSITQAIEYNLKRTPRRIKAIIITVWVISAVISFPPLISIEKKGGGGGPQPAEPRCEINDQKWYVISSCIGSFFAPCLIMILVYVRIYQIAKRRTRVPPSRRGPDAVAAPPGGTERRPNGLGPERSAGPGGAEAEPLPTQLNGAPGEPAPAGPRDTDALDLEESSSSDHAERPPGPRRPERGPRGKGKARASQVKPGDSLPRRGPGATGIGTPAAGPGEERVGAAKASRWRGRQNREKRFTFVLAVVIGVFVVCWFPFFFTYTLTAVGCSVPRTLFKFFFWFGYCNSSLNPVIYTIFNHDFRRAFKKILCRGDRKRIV

[12] = Drug level in Sprague-Dawley rat brain at 10 mg/kg, po after 2 hrs; assay type: ADME, organism-based; parameters: dose 10 mg/kg, route oral

T2 sequence (P41595 whole entry): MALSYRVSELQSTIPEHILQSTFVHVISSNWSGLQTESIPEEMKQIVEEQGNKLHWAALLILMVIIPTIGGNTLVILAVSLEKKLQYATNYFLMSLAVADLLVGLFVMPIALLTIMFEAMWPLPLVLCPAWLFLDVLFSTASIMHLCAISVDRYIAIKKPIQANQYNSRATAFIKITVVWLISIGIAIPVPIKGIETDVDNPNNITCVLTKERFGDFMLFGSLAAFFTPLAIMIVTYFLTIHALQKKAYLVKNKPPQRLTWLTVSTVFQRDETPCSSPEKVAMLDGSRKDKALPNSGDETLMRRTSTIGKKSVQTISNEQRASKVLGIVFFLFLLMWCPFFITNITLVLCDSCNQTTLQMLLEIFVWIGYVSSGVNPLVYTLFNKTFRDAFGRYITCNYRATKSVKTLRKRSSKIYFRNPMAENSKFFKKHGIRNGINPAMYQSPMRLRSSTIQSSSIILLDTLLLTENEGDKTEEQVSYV
Sequence of Histamine H1 receptor (P35367 whole entry): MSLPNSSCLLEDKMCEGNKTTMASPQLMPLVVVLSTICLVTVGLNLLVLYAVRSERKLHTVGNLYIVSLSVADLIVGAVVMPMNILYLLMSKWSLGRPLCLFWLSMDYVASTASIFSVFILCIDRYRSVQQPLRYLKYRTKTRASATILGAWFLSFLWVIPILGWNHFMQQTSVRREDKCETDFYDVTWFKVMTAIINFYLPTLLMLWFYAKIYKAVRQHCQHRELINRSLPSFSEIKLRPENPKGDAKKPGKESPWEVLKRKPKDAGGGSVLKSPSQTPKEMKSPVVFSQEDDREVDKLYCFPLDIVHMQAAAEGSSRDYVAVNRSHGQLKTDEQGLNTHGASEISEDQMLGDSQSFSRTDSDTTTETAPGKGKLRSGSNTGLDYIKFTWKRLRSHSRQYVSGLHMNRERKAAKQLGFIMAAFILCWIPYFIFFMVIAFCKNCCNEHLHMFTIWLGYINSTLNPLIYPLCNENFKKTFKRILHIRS

CCc1cnc(N[C@H]2CC[C@@H](NC(=O)c3ccc(F)c(F)c3)CC2)nc1N(C)C
IC50 [1]: 100 nM

CNc1nc(N[C@H]2CC[C@@H](NC(=O)c3ccc(F)c(F)c3)CC2)ncc1C
Activity [2]: inactive

CN(C)c1nc(N[C@H]2CC[C@@H](NC(=O)c3ccc(F)c(F)c3)CC2)nc2ccccc12
IC50 [3]: 9.66 nM
concentration at 2 h [4]: 109 ng/mL
concentration at 4 h [5]: 101 ng/mL
IC50 [6]: 150 nM
concentration at 4 h [7]: 70 ng/g
IC50 [8]: 16.9 nM
Kp [9]: 0.5
IC50 (Histamine H1 receptor): 150 nM
IC50 [10]: 300 nM
IC50 [11]: 104 nM
concentration at 2 h [12]: 55 ng/g

Cc1cc(N(C)C)nc(N[C@H]2CC[C@@H](NC(=O)c3ccc(F)c(F)c3)CC2)n1
IC50 [1]: 2.5 nM

CCNc1nc(N[C@H]2CC[C@@H](NC(=O)c3ccc(F)c(F)c3)CC2)ncc1C
Activity [2]: inactive

Cc1ccc(C(=O)N[C@H]2CC[C@@H](Nc3ncc(C)c(N(C)C)n3)CC2)cc1
IC50 [6]: 120 nM
IC50 (Histamine H1 receptor): 170 nM
IC50 [10]: > 10000 nM
IC50 [11]: 1770 nM
IC50 [1]: 13 nM

Cc1cc(N(C)C)nc(N[C@H]2CC[C@@H](CNC(=O)c3ccc(F)c(F)c3)CC2)n1
IC50 [1]: 210 nM

Cc1cnc(N[C@H]2CC[C@@H](NC(=O)c3ccc(F)c(F)c3)CC2)nc1N(C)C
IC50 [1]: 2 nM

Cc1cnc(N[C@H]2CC[C@@H](CNC(=O)c3ccc(F)c(F)c3)CC2)nc1N(C)C
IC50 [6]: 320 nM
IC50 (Histamine H1 receptor): 920 nM
IC50 [10]: 3600 nM
IC50 [11]: 210 nM
IC50 [1]: 120 nM

CCN(C)c1nc(N[C@H]2CC[C@@H](NC(=O)c3ccc(F)c(F)c3)CC2)ncc1C
IC50 [1]: 46 nM

Cc1cc(N(C)C)nc(N[C@H]2CC[C@@H](NC(=O)c3ccc(OC(F)(F)F)cc3)CC2)n1
IC50 [1]: 230 nM

CN(C)c1cc(N(C)C)nc(N[C@H]2CC[C@@H](NC(=O)c3ccc(F)c(F)c3)CC2)n1
IC50 [1]: 58 nM

COCC1=C(C(=O)OC)[C@H](c2ccc(F)c(F)c2)N(C(=O)NCCCN2CCC(c3cccc(NC(C)=O)c3)CC2)C(=O)N1 [SNAP-7941]
pA2 [1]: 9.24

Cc1cccc(C(=O)N[C@H]2CC[C@@H](Nc3nc(C)cc(N(C)C)n3)CC2)c1
IC50 [1]: 9.6 nM

Cc1cccc(C(=O)N[C@H]2CC[C@@H](Nc3ncc(C)c(N(C)C)n3)CC2)c1
IC50 [6]: 31 nM
IC50 (Histamine H1 receptor): 1600 nM
IC50 [10]: 2790 nM
IC50 [11]: 580 nM
IC50 [1]: 2.9 nM

Cc1cnc(N[C@H]2CC[C@@H](CNC(=O)c3cccc(C(F)(F)F)c3)CC2)nc1N(C)C
IC50 [1]: 26 nM

Cc1cc(N(C)C)nc(N[C@H]2CC[C@@H](NC(=O)c3ccc(Cl)c(Cl)c3)CC2)n1
IC50 [6]: 130 nM
IC50 (Histamine H1 receptor): 390 nM
IC50 [10]: > 10000 nM
IC50 [11]: 130 nM
IC50 [1]: 4.8 nM

CCNc1nc(N[C@H]2CC[C@@H](CNC(=O)c3cc(C(F)(F)F)cc(C(F)(F)F)c3)CC2)ncc1C
Activity [2]: inactive
